Data from US5486508A, “Cyclodextrin composition” (TAKEDA Chemical Industries Ltd., priority 1991, dated 1996).
≈ marks a conversion by molar mass, not a printed value. Like-named read-outs stand apart in the source and are kept apart here.

Experiments:
[1] = Solubility of diazepam or clofibrate complex with G2 βCD versus drug alone
From the text: The solubility of the complex was compared with that of the drug alone.

[2] = Stability of powders at 40° C. for 2 weeks (residual amount of Compound A by HPLC); assay type: physicochemical; conditions: powder storage, 336 h
Procedure: The residual amounts of Compound A was determined by HPLC.

[3] = water
Procedure: (§1) The aqueous solution was added to the above ethyl alcohol solution with stirring. The solution thus obtained was lyophilized to obtain a powder.
(§2) After 4 hours, the mixture was filtered through a filter having pore size of 0.22 μm.

[4] = water; remark: listed apart in the source
Procedure: as §1, §2

Row | Compound | solubility [1] [µg/mL] | Stability, Residual rate [2] [%] | Comparison of solubilities (solubility concentration of Compound A) [3] [µg/mL] | Comparison of solubilities (solubility concentration of Compound A) [4] [µg/mL]
1 | CCOC(=O)C(C)(C)Oc1ccc(Cl)cc1 [Clofibrate, clofibrate] | 36 (≈ 148 µM) |  |  | 
2 | CO[C@@H]1[C@H](OC(=O)NC(=O)CCl)CC[C@]2(CO2)[C@H]1[C@@]1(C)O[C@@H]1CC=C(C)C [Compound A, 6-O-(N-chloroacetylcarbamoyl)fumagillol] |  | 81.4 | 1700 | 1700
